Experimental data from US5142095A, “Diarylalkanoids having activity as lipoxygenase inhibitors” (Warner-Lambert Company, priority 1989, dated 1992).

Key:
5-lipoxygenase = target: T1, 5-lipoxygenase (Homo sapiens, UniProt P09917); experiment: 5-Lipoxygenase Assay Using Isolated Human Leukocytes (5LOA2), 5-HETE formation; format: cell-based; conditions: for inhibition at 20 µM: read-out: 5-LOA % inhibition at 20 μM; for IC50: 50% inhibition of 5-HETE formation in human leukocytes, 20 μM arachidonic acid, 10 μM A23187, read-out: 5-LOA IC50
T1 construct: endogenous in cells; host or cells: leukocytes isolated from fresh human blood
T1 sequence (P09917 1-674): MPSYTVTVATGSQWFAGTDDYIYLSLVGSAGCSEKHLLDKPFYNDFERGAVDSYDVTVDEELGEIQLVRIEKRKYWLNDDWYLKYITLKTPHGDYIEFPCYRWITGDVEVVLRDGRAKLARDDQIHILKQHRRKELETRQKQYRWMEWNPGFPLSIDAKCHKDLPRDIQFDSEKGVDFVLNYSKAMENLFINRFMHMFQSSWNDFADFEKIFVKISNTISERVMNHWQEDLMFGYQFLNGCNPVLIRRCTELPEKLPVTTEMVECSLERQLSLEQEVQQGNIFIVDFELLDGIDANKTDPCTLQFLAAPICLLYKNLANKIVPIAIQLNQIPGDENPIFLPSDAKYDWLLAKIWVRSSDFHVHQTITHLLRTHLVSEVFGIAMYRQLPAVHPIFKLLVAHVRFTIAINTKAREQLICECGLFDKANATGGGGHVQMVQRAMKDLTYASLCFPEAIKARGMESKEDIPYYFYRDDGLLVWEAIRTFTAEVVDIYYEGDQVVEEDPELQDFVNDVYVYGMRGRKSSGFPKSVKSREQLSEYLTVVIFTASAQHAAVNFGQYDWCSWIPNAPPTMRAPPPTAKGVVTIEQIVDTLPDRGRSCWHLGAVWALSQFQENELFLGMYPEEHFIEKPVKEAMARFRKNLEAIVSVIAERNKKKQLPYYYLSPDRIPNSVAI
Experimental: 5-Lipoxygenase Assay Using Isolated Human Leukocytes (5LOA2)
The formation of 5-HETE in human leukocytes is considered a measure of 5-lipoxygenase activity. The protocol is described in the following.
Fresh heparinized or EDTA treated human blood is mixed with 6% dextran-3% dextrose in isotonic saline in the ratio 0.25 ml dextran solution per 1.0 ml blood. After mixing the blood is allowed to sit at room temperature for about 90 minutes while the RBC's settle. During this period, the plasma is removed with a plastic pipette to nalgens tubes.
The plasma is centrifuged at 800 rpm ([…]) on the Beckman Td-b refrigerated centrifuge to remove the platelets (which remain in the supernatant). The pellet, consisting of leukocytes and erythrocytes, is treated with 10 ml 0.87% ammonium chloride at room temperature for four minutes, lysing the red cells. At the end of four minutes the cells are diluted with a 2× volume of phosphate buffered saline, pH 7.4, and centrifuged for ten minutes. The cells are washed three times with the phosphate buffered saline. Any of the pelleted cell matter which is not easily resuspended is discarded during the washings--the material contains platelets (12-lipoxygenase activity).
After washing, the cells are resuspended in phosphate buffered saline containing 1.0 mM calcium and 0.5 mM magnesium. After counting, the cells are diluted to 1.5-2.0×10^-7 leukocytes per milliliter.
To each poly propylene reaction tube is added 0.48 ml leukocytes in Ca-Mg phosphate buffered saline, pH 7.4; 1-5 μl test compound dissolved in DMSO and buffer; or DMSO for control tubes.
The tubes preincubate at 37° C. for five minutes.
The reaction is started by adding 20 μl of the following, 0.5 μl, 20 mM arachidonic acid--final concentration =20 μm; 1 μl, 5 mM calcium ionophore A23187--final concentration =10 μm; and 18.5 μl buffer.
The reaction proceeds for five minutes, then is stopped by adding 0.5 ml, 0.5 mM ice cold Tris buffer, pH 8.0. The tubes are chilled on ice for ten minutes and then extracted three times with a total of 3.5 ml ethyl acetate (3.0 ml removed).
The tubes can be stored at this point. For extended storage, the tubes should be filled with nitrogen.
The ethyl acetate is evaporated with a Sorvall Speed-Vac. The residue is dissolved in ethanol. The tubes can also be stored at this point at -20° C. under nitrogen.
A portion of the ethanol solution is injected into the HPLC system for 5-HETE quantitation.
The HPLC system consists of Hewlett-Packard 1040A UV spectrophotometry system with an HP85 computer. Injections are made automatically with a Waters WISP 710B. The pump is a Spectra Physics SP8700. Peaks are measured with a Hewlett Packard 3390A integrator. An RP C-18 column is used. The solvent system is isocratic; the solvent is 70% methanol and 30% 0.01M sodium acetate, pH 5.7, pumped at 1.0 ml/min. The flow is monitored at 235 nm for 5-HETE quantitation. Using a 15 cm Alltech Nucleosil C-18 5 μM column provides for a sample turnaround time of about 16 minutes.
IC50 is calculated as the amount of test agent that causes 50% inhibition of the formation of 5-HETE relative to the control.

Cyclooxygenase = target: T2, Cyclooxygenase (Bos taurus, UniProt O62664); experiment: Cyclooxygenase Enzyme Assay (BSV), bovine seminal vesicle powder, PGE2 formation; format: biochemical; conditions: 100 μM arachidonic acid, 20 minutes
T2 construct: The assay consists of incubating 2 mg bovine seminal vesicle powder; from tissue; host or cells: bovine seminal vesicle powder
T2 sequence (O62664 25-600): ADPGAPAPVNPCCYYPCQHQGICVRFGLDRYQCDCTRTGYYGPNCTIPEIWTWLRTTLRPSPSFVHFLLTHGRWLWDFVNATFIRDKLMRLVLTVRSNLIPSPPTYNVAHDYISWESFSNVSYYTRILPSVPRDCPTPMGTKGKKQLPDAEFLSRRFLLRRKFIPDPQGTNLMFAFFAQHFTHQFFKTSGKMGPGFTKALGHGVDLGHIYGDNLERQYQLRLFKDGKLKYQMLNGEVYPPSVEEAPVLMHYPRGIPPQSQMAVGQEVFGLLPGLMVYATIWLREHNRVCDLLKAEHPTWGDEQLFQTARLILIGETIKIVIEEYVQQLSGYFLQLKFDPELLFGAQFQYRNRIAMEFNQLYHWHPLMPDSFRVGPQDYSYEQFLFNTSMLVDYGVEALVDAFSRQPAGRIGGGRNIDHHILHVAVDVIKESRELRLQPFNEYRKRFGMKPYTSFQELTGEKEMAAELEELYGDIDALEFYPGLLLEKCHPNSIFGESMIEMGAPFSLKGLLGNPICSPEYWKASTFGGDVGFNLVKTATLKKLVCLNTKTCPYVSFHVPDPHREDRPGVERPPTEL
Experimental: Cyclooxygenase Enzyme Assay (BSV) […]
The assay consists of incubating 2 mg bovine seminal vesicle powder with 2 mM epinephrine, 2.5 mM reduced glutathione, 100 μM arachidonic acid, and the test agent for 20 minutes. The reaction mixture is acidified and extracted with ethyl acetate (3×1.0 ml) and the pooled extract is evaporated to dryness using a Speed Vac Concentrator or under a stream of nitrogen. The residue is dissolved in ethanol An aliquot is applied on 20×20 cm silica gel plate and developed using water:ethyl acetate:hexane:acetic acid (60:54:25:12.5, upper phase) to separate PGE2 from arachidonic acid. ^14 C-PGE2 formed is identified by co-chromatography with authentic ^3 H-PGE2 and the amount of radioacitvity is quantitated using an automatic TLC linear scanner (Berthold, Pittsburgh, Pa.) linked to an Apple II-e computer and an ICso is calculated as the amount of test agent causing 50% inhibition of Cyclooxygenase Enzyme relative to the control.

SMILES	inhibition at 20 µM (5-lipoxygenase)	IC50 (5-lipoxygenase)	IC50 (Cyclooxygenase)
O=C(/C=C/c1ccc(C(=O)O)cc1)CCCCc1ccccc1 [Example 6]	19%	–	–
O=C(/C=C/c1ccc(O)cc1)CCCCc1ccccc1 [Example 3]	30%	–	–
COc1cc(/C=C/C(=O)CCc2ccccc2)ccc1O [Example 9]	–	15 µM	31 µM
COc1cc(C=CC(=O)CCc2ccc(O)c(OC)c2)ccc1O [Example 13, 1-Penten-3-one, 1,5-bis(4-hydroxy-3-methoxyphenyl)]	–	19 µM	84 µM
OCc1cc(/C=C/C(CCc2ccccc2)=NO)ccc1O [Example 22]	–	35 µM	–
COc1cc(C=CC(=O)CSc2ccccc2)ccc1O [Example 16A, 1-(4-Hydroxy-3-methoxyphenyl)-4-phenylthio-1-butene-3-one]	–	12 µM	–
O=C(/C=C/c1ccc(O)c(Cl)c1)CCc1ccccc1 [Example 11]	–	22 µM	110 µM
O=C(/C=C/c1ccc(O)c(CO)c1)CCCCc1ccccc1 [Example 4]	17%	–	–
COc1cc(C=CC(=O)CCCOc2ccccc2)ccc1O [Example 14, 1-(4-Hydroxy-3-methoxyphenyl)-6-phenoxy-1-hexene-3-one]	–	11 µM	31 µM
COc1cc(C=CC(=O)COc2ccccc2)ccc1O [Example 16, 1(4'-Hydroxy-3'-methoxyphenyl)-4-phenoxy-1-butene-3-one]	–	20 µM	130 µM
O=C(/C=C/c1ccc(O)c(CO)c1)CCc1ccccc1 [Example 10]	–	18 µM	92 µM
COc1cc(/C=C/C(=O)CCCc2ccccc2)ccc1O [Example 7]	–	18 µM	–
O=C(/C=C/c1ccc(O)c([N+](=O)[O-])c1)CCc1ccccc1 [Example 12, 1-Pentene-3-one, 1-(4-hydroxy-3-nitrophenyl)-5-phenyl]	22%	–	135 µM
COc1ccc(C=CC(=O)CCCCc2ccccc2)cc1O [Example 1, 1-(3-Hydroxy-4-methoxyphenyl)-7-phenyl-1-hepten3-one]	–	11 µM	–
O=C(/C=C/c1ccc(O)c(Cl)c1)CCCCc1ccccc1 [Example 5]	–	8.8 µM	–

More lines, in order of falling IC50 (5-lipoxygenase), values ahead:

inhibition at 20 µM (5-lipoxygenase)	IC50 (5-lipoxygenase)	IC50 (Cyclooxygenase)	SMILES
–	8.7 µM	–	OCc1cc(/C=C/C(CCCCc2ccccc2)=NO)ccc1O [Example 20]
–	5.9 µM	–	COc1ccc(/C=C/C(CCCCc2ccccc2)=NO)cc1O [Example 18]
–	3 µM	–	CON=C(C=Cc1ccc(O)c(OC)c1)CCCCc1ccccc1 [Example 26, 1-(4-Hydroxy-3-methoxyphenyl)-7-phenyl-1-hepten-3-one, O-methyl oxime]
–	2.5 µM	57 µM	COc1cc(C=CC(COc2ccccc2)=NO)ccc1O [Example 24, 1-(4-Hydroxy-3-methoxyphenyl)-4-phenoxy-1-buten-3-one oxime]
–	2 µM	–	O=C(/C=C/c1ccc(O)c(O)c1)CCCc1ccccc1 [Example 8]
–	1.7 µM	–	O=C(/C=C/c1ccc(O)c(O)c1)CCCCc1ccccc1 [Example 2, 1-(3,4-dihydroxyphenyl)-7-phenyl-1-hepten-3-one]
–	1.7 µM	23 µM	COc1cc(/C=C/C(CCCCc2ccccc2)=NO)ccc1O [Example 17, 1-Hepten-3-one, 1-(4-hydroxy-3-methoxyphenyl)-7-phenyl, oxime]
–	1 µM	125 µM	ON=C(/C=C/c1ccc(O)c(O)c1)CCCCc1ccccc1 [Example 19, 1-Hepten-3-one, 1-(3,4-dihydroxyphenyl)-7-phenyl, oxime]
–	0.71 µM	170 µM	COc1cc(C=CC(CCCOc2ccccc2)=NO)ccc1O [Example 25, 1-(4-Hydroxy-3-methoxyphenyl)-6-phenoxy-1-hexen-3-one oxime]
–	0.42 µM	33 µM	COc1cc(/C=C/C(CCc2ccccc2)=NO)ccc1O [Example 21, 1-Penten-3-one, 1-(4-hydroxy-3-methoxyphenyl)-5-phenyl, oxime]
–	0.26 µM	90 µM	Nc1cc(/C=C/C(CCc2ccccc2)=NO)ccc1O (single isomer, unassigned) [23 (Isomer B), 1-Penten-3-one, 1-(3-amino-4-hydroxyphenyl)-5-phenyl, oxime]
–	0.165 µM	98 µM	Nc1cc(/C=C/C(CCc2ccccc2)=NO)ccc1O (single isomer, unassigned) [23 (Isomer A), 1-Penten-3-one, 1-(3-amino-4-hydroxyphenyl)-5-phenyl, oxime]
–	0.079 µM	169 µM	Nc1cc(/C=C/C(=O)CCc2ccccc2)ccc1O [Example 15, 1-Pentene-3-one, 1-(3-amino-4-hydroxyphenyl)-5phenyl]
